Data published in patent publication US4983616A, “Hexahydropyrrolo(2,3-B)indole carbamates, ureas, amides and related compounds” (priority 1990, dated 1991).
pIC50: −log10 of the molar value. Counter-ions that a name gives are not always drawn. Like-named read-outs stand apart in the source and are kept apart here.

Key:
[1] = test system: Scopolamine Induced Memory Deficit; type: in vivo, mice
Experimental: In this assay mice are tested for their ability to remember an unpleasant stimulus for a period of 24 hours. A mouse is placed in a chamber that contains a dark compartment; a strong incandescent light drives it to the dark compartment, where an electric shock is administered through metal plates on the floor. The animal is removed from the testing apparatus and tested again, 24 hours later, for the ability to remember the electric shock.
If scopolamine, an anticholinergic that is known to cause memory impairment, is administered before an animal's initial exposure to the test chamber, the animal re-enters the dark compartment shortly after being placed in the test chamber 24 hours later. This effect of scopolamine is blocked by an active test compound, resulting in a greater interval before re-entry into the dark compartment.
The results for an active compound are expressed as the percent of a group of animals in which the effect of scopolamine is blocked, as manifested by an increased interval between being placed in the test chamber and re-entering the dark compartment.
Results of this assay for some of the compounds of this invention and those for tacrine and pilocarpine (reference compounds) are presented in Table 2.

[2] = target: T1, Brain AChE (acetylcholinesterase, rat striatum) (Rattus norvegicus, UniProt P37136); assay: In Vitro Inhibition of Acetylcholinesterase Activity in Rat Striatum; type: biochemical, rat (male Wistar)
T1 construct: corpora striata dissected free, weighed and homogenized in 19 volumes; from tissue; host or cells: corpora striata of male Wistar rats, whole homogenate
T1 sequence (P37136 32-614): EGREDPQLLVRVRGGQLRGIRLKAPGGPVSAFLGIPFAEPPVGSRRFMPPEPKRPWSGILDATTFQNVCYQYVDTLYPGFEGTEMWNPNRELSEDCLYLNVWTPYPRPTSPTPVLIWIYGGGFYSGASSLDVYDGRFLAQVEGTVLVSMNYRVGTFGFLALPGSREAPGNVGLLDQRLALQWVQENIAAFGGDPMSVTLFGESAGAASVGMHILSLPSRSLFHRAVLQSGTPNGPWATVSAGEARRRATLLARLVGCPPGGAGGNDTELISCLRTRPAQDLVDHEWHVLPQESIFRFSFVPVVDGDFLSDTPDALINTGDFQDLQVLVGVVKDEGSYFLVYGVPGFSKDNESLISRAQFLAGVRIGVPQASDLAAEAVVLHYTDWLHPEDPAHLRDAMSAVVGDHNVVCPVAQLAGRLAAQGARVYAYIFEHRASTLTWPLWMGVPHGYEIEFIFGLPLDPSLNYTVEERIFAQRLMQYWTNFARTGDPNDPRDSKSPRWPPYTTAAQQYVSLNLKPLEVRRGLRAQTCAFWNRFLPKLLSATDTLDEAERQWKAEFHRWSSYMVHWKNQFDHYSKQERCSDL
Experimental: Cholinesterases are found throughout the body, both in the brain and in serum. However, only brain acetylcholinesterase (AChE) distribution is correlated with central cholinergic innervation.
In Vitro Inhibition of Acetylcholinesterase Activity in Rat Striatum
The method described below was used in this invention for assaying cholinesterase activity.
1. 0.05M Phosphate buffer, pH 7.2
(a) 6.85 g NaH2 PO4 .cndot.H2 O/100 ml distilled H2 O
(c) add (a) to (b) until pH reaches 7.2
(a) 9.9 mg 5,5-dithiobisnitrobenzoic acid (DTNB) (0.25 mM)
(b) 99 mg s-acetylthiocholine chloride (5 mM)
(c) q.s. to 100 ml with 0.05M phosphate buffer, pH 7.2 (reagent 1)
3. […]
Following the 10 minute preincubation of the tissue (enzyme) with the inhibitor, the samples are mixed with the substrate chromogen buffer by the ABA-100. Using the indicated instrument settings the ABA-100 automatically reads the color reaction and prints out the results in enzyme units after 15 minutes.
2. The enzyme activity can also be measured with Gilford 250 spectrophotometer. […]
The uninhibited activity of the enzyme (tissue homogenate) is first determined. […] The reaction rate is determined by the slope of the recorded absorbance change. […]

[3] = 0.31 mg/kg of body weight, s.c, mice, 24 hours
[4] = 5.0 mg/kg of body weight, s.c, mice, 24 hours

Compound | pIC50 [2] | % of Animals with Scopolamine Induced Memory Deficit Reversal [1, 3] [%] | % of Animals with Scopolamine Induced Memory Deficit Reversal [1, 4] [%] | also measured
CN1CCC2(C)c3cc(NC(=O)OCc4ccccc4)ccc3N(C)C12 (stereo not shown) [5-(Benzoxycarbonylamino)-1,2,3,3a,8,8a-hexahydro-1,3a,8-trimethylpyrrolo[2,3-b]indole] |  |  |  | % of Animals with Scopolamine Induced Memory Deficit Reversal ([1]; 0.3 mg/kg of body weight, s.c, mice, 24 hours): 28%; % of Animals with Scopolamine Induced Memory Deficit Reversal ([1]; 1.0 mg/kg of body weight, s.c, mice, 24 hours): 21%; % of Animals with Scopolamine Induced Memory Deficit Reversal ([1]; 3.0 mg/kg of body weight, s.c, mice, 24 hours): 21%
CN1CCC2(C)c3cc(NC(=O)Oc4ccc(Cl)cc4)ccc3N(C)C12 (stereo not shown) [5-(4-Chlorophenoxycarbonylamino)-1,2,3,3a,8,8a-hexahydro-1,3a,8-trimethylpyrrolo[2,3-b]indole oxalate] | 5.96 |  |  | 
CN1CCC2(C)c3cc(NC(=O)OC(C)(C)C)ccc3N(C)C12.O=C(O)C(=O)O (stereo not shown) [5-(t-Butoxycarbonylamino)-1,2,3,3a,8,8a-hexahydro-1,3a,8-trimethylpyrrolo[2,3-b]indole oxalate] |  | 33 | 27 | % of Animals with Scopolamine Induced Memory Deficit Reversal ([1]; 1.25 mg/kg of body weight, s.c, mice, 24 hours): 20%
CN1CCC2(C)c3cc(NC(=O)Oc4ccccc4)ccc3N(C)C12.O=C(O)C(=O)O (stereo not shown) [1,2,3,3a,8,8a-Hexahydro-5-(phenoxycarbonylamino)-1,3a,8-trimethylpyrrolo[2,3-b]indole oxalate] | 4.85 | 40 | 21 | % of Animals with Scopolamine Induced Memory Deficit Reversal ([1]; 1.16 mg/kg of body weight, s.c, mice, 24 hours): 53%
Nc1c2c(nc3ccccc13)CCCC2 [Tacrine, reference compound] |  |  |  | % of Animals with Scopolamine Induced Memory Deficit Reversal ([1]; mouse, in vivo): 13%
CC[C@@H]1C(=O)OC[C@@H]1Cc1cncn1C [Pilocarpine, reference compound] |  |  | 13 | 
